In this test the target is GST-Bcl-2 (Homo sapiens (Human), UniProt P10415). Kind of test: Time Resolved-Fluorescence Resonance Energy Transfer (TR-FRET) Bcl-2 binding assay. The procedure, abridged:
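Ki values derived from TR-FRET displacement of F-Bak peptide from GST-Bcl-2, detected with Tb-labelled anti-GST antibody (ex 340, em 520/495 nm). Compound dilution series started at 50 μM (2× starting concentration); room-temperature incubation 3 hours.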

[1] abbreviates: GST-Bcl-2 1 nM, F-Bak peptide probe 100 nM, Tb-anti-GST antibody 1 nM, Ki by Wang's equation.

Like-named read-outs stand apart in the source and are kept apart here. Some results are limits rather than exact numbers.

GST-Bcl-2, sequence (P10415 whole entry): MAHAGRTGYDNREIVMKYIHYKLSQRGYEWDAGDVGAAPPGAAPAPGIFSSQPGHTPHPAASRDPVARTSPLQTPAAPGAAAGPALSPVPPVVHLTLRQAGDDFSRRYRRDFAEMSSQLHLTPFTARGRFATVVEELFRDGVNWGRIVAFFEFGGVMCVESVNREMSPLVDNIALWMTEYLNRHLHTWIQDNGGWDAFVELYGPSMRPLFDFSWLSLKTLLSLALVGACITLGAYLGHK

`CC1(C)CCC(CN2CCN(c3ccc(C(=O)NS(=O)(=O)c4ccc(NCCCN5CCOCC5)c([N+](=O)[O-])c4)c(Oc4cccc(F)c4F)c3)CC2)=C(c2ccc(Cl)cc2)C1` [Example 51, 4-(4-((2-(4-chlorophenyl)-4,4-dimethylcyclohex-1-en-1-yl)methyl)piperazin-1-yl)-2-(2,3-difluorophenoxy)-N-((4-((3-morpholin-4-ylpropyl)amino)-3-nitrophenyl)sulfonyl)benzamide] registered a Ki under setting [1] of 0.066 nM.

For `CC1(C)CCC(CN2CCN(c3ccc(C(=O)NS(=O)(=O)c4ccc(NC5CCN(C6CC6)CC5)c([N+](=O)[O-])c4)c(Oc4cccc(F)c4)c3)CC2)=C(c2ccc(Cl)cc2)C1` [Example 132, 4-(4-{[2-(4-chlorophenyl)-4,4-dimethylcyclohex-1-en-1-yl]methyl}piperazin-1-yl)-N-({4-[(1-cyclopropylpiperidin-4-yl)amino]-3-nitrophenyl}sulfonyl)-2-(3-fluorophenoxy)benzamide], under setting [1], the affinity, expressed as Ki, was 0.211 nM.

As to `CC1(C)CCC(CN2CCN(c3ccc(C(=O)NS(=O)(=O)c4ccc(NC5CCN(C6CCCC6)CC5)c([N+](=O)[O-])c4)c(Oc4cccc(F)c4F)c3)CC2)=C(c2ccc(Cl)cc2)C1` [Example 133, 4-(4-{[2-(4-chlorophenyl)-4,4-dimethylcyclohex-1-en-1-yl]methyl}piperazin-1-yl)-N-({4-[(1-cyclopentylpiperidin-4-yl)amino]-3-nitrophenyl}sulfonyl)-2-(2,3-difluorophenoxy)benzamide], the affinity under setting [1] corresponds to a Ki of 0.055 nM.

For the compound `CC1(C)CCC(CN2CCN(c3ccc(C(=O)NS(=O)(=O)c4ccc(NCCCN5CCNC(=O)C5)c([N+](=O)[O-])c4)c(Oc4ccccc4Cl)c3)CC2)=C(c2ccc(Cl)cc2)C1` [Example 254, 2-(2-chlorophenoxy)-4-(4-{[2-(4-chlorophenyl)-4,4-dimethylcyclohex-1-en-1-yl]methyl}piperazin-1-yl)-N-[(3-nitro-4-{[3-(3-oxopiperazin-1-yl)propyl]amino}phenyl)sulfonyl]benzamide], the Ki under setting [1] came out at 0.119 nM.

Take `CC1(C)CCC(CN2CCN(c3ccc(C(=O)NS(=O)(=O)c4ccc(N[C@@H]5CCN(C(CF)CF)C5)c([N+](=O)[O-])c4)c(Oc4cc5cc[nH]c5cc4F)c3)CC2)=C(c2ccc(Cl)cc2)C1` [Example 357, 4-(4-{[2-(4-chlorophenyl)-4,4-dimethylcyclohex-1-en-1-yl]methyl}piperazin-1-yl)-N-{[4-({(3R)-1-[2-fluoro-1-(fluoromethyl)ethyl]pyrrolidin-3-yl}amino)-3-nitrophenyl]sulfonyl}-2-[(6-fluoro-1H-indol-5-yl)oxy]benzamide]: under setting [1], the Ki was found to be 0.177 nM.

Regarding `CC1(C)CCC(CN2CCN(c3ccc(C(=O)NS(=O)(=O)c4ccc(OCC5(F)CCOCC5)c([N+](=O)[O-])c4)c(Oc4cccc5c4CC(=O)N5)c3)CC2)=C(c2ccc(Cl)cc2)C1` [Example 313, 4-(4-{[2-(4-chlorophenyl)-4,4-dimethylcyclohex-1-en-1-yl]methyl}piperazin-1-yl)-N-({4-[(4-fluorotetrahydro-2H-pyran-4-yl)methoxy]-3-nitrophenyl}sulfonyl)-2-[(2-oxo-2,3-dihydro-1H-indol-4-yl)oxy]benzamide], the Ki under setting [1] was below 0.01 nM.

Under setting [1], `CN1CCN(Nc2ccc(S(=O)(=O)NC(=O)c3ccc(N4CCN(CC5=C(c6ccc(Cl)cc6)CC(C)(C)CC5)CC4)cc3Oc3cccc(Cl)c3)cc2[N+](=O)[O-])CC1` [Example 199, 2-(3-chlorophenoxy)-4-(4-{[2-(4-chlorophenyl)-4,4-dimethylcyclohex-1-en-1-yl]methyl}piperazin-1-yl)-N-({4-[(4-methylpiperazin-1-yl)amino]-3-nitrophenyl}sulfonyl)benzamide] returned a Ki of 0.244 nM.

Compound `CC1(C)CCC(CN2CCN(c3ccc(C(=O)NS(=O)(=O)c4ccc(NCCCN5CCOCC5)c([N+](=O)[O-])c4)c(Oc4cc(Cl)ccc4Cl)c3)CC2)=C(c2ccc(Cl)cc2)C1` [Example 67, 4-(4-((2-(4-chlorophenyl)-4,4-dimethylcyclohex-1-en-1-yl)methyl)piperazin-1-yl)-2-(2,5-dichlorophenoxy)-N-((4-((3-morpholin-4-ylpropyl)amino)-3-nitrophenyl)sulfonyl)benzamide] returned a Ki under setting [1] of 0.807 nM.

Regarding `Cc1nc2ccc(Oc3cc(N4CCN(Cc5ccccc5-c5ccc(Cl)cc5)CC4)ccc3C(=O)NS(=O)(=O)c3ccc(NCC4CCOCC4)c([N+](=O)[O-])c3)cc2s1` [Example 23, 4-(4-((4′-chloro-1,1′-biphenyl-2-yl)methyl)piperazin-1-yl)-2-((2-methyl-1,3-benzothiazol-6-yl)oxy)-N-((3-nitro-4-((tetrahydro-2H-pyran-4-ylmethyl)amino)phenyl)sulfonyl)benzamide], the affinity under setting [1], expressed as Ki, was 8.27 nM.

`CN1CCN(Nc2ccc(S(=O)(=O)NC(=O)c3ccc(N4CCN(CC5=C(c6ccc(Cl)cc6)CC(C)(C)CC5)CC4)cc3Oc3cnc(N)c(Cl)c3)cc2[N+](=O)[O-])CC1` [Example 343, 2-[(6-amino-5-chloropyridin-3-yl)oxy]-4-(4-{[2-(4-chlorophenyl)-4,4-dimethylcyclohex-1-en-1-yl]methyl}piperazin-1-yl)-N-({4-[(4-methylpiperazin-1-yl)amino]-3-nitrophenyl}sulfonyl)benzamide] showed an inhibitory constant (Ki) under setting [1] of 0.009 nM.

In turn, `CN1CCC(Nc2ccc(S(=O)(=O)NC(=O)c3ccc(N4CCN(CC5=C(c6ccc(Cl)cc6)CC(C)(C)CC5)CC4)cc3Oc3cccc4c3ccn4C(=O)OC(C)(C)C)cc2[N+](=O)[O-])CC1` [Example 202, tert-butyl 4-(5-(4-{[2-(4-chlorophenyl)-4,4-dimethylcyclohex-1-en-1-yl]methyl}piperazin-1-yl)-2-{[({4-[(1-methylpiperidin-4-yl)amino]-3-nitrophenyl}sulfonyl)amino]carbonyl}phenoxy)-1H-indole-1-carboxylate] came in with a Ki under setting [1] of 20 nM.

As to `CC1(C)CCC(CN2CCN(c3ccc(C(=O)NS(=O)(=O)c4ccc(NCC5CCOCC5)c([N+](=O)[O-])c4)c(Oc4cc5cc[nH]c5cc4F)c3)CC2)=C(c2ccc(Cl)cc2)C1` [Example 238, 4-(4-{[2-(4-chlorophenyl)-4,4-dimethylcyclohex-1-en-1-yl]methyl}piperazin-1-yl)-2-[(6-fluoro-1H-indol-5-yl)oxy]-N-({3-nitro-4-[(tetrahydro-2H-pyran-4-ylmethyl)amino]phenyl}sulfonyl)benzamide], the Ki under setting [1] worked out at 0.124 nM.

With `CC1(C)CCC(CN2CCN(c3ccc(C(=O)NS(=O)(=O)c4ccc(N[C@H]5CC[C@H](N6CCN(C7CCOCC7)CC6)CC5)c([N+](=O)[O-])c4)c(Oc4cc5cc[nH]c5cc4F)c3)CC2)=C(c2ccc(Cl)cc2)C1` [Example 336, Trans-4-(4-{[2-(4-chlorophenyl)-4,4-dimethylcyclohex-1-en-1-yl]methyl}piperazin-1-yl)-2-[(6-fluoro-1H-indol-5-yl)oxy]-N-[(3-nitro-4-{[4-(4-tetrahydro-2H-pyran-4-ylpiperazin-1-yl)cyclohexyl]amino}phenyl)sulfonyl]benzamide], the Ki is below 0.01 nM.

`CC1(C)CCC(CN2CCN(c3ccc(C(=O)NS(=O)(=O)c4cnc(OCC5CCC(F)(F)CC5)c(Cl)c4)c(Oc4cnc(N)c(Cl)c4)c3)CC2)=C(c2ccc(Cl)cc2)C1` [Example 409, 2-[(6-amino-5-chloropyridin-3-yl)oxy]-N-({5-chloro-6-[(4,4-difluorocyclohexyl)methoxy]pyridin-3-yl}sulfonyl)-4-(4-{[2-(4-chlorophenyl)-4,4-dimethylcyclohex-1-en-1-yl]methyl}piperazin-1-yl)benzamide]: the Ki under setting [1] was determined as 0.686 nM.

Compound `CC1(C)CCC(CN2CCN(c3ccc(C(=O)NS(=O)(=O)c4ccc(OCC5CCOCC5)c([N+](=O)[O-])c4)c(Oc4cc5cc[nH]c5cc4F)c3)CC2)=C(c2ccc(Cl)cc2)C1` [Example 264, 4-(4-{[2-(4-chlorophenyl)-4,4-dimethylcyclohex-1-en-1-yl]methyl}piperazin-1-yl)-2-[(6-fluoro-1H-indol-5-yl)oxy]-N-{[3-nitro-4-(tetrahydro-2H-pyran-4-ylmethoxy)phenyl]sulfonyl}benzamide] yielded an inhibition constant (Ki) under setting [1] of 0.068 nM.

For `CC1(C)CCC(CN2CCN(c3ccc(C(=O)NS(=O)(=O)c4ccc(NC5CCN(CCF)CC5)c([N+](=O)[O-])c4)c(Oc4cccc(F)c4F)c3)CC2)=C(c2ccc(Cl)cc2)C1` [Example 140, 4-(4-{[2-(4-chlorophenyl)-4,4-dimethylcyclohex-1-en-1-yl]methyl}piperazin-1-yl)-2-(2,3-difluorophenoxy)-N-[(4-{[1-(2-fluoroethyl)piperidin-4-yl]amino}-3-nitrophenyl)sulfonyl]benzamide], affinity under setting [1] was put at a Ki of 0.223 nM.

Turning to `CC1(C)CCC(CN2CCN(c3ccc(C(=O)NS(=O)(=O)c4ccc(NCC5CCOCC5)c([N+](=O)[O-])c4)c(Oc4ccc(NC5CC5)nc4)c3)CC2)=C(c2ccc(Cl)cc2)C1` [Example 374, 4-(4-{[2-(4-chlorophenyl)-4,4-dimethylcyclohex-1-en-1-yl]methyl}piperazin-1-yl)-2-{[6-(cyclopropylamino)pyridin-3-yl]oxy}-N-({3-nitro-4-[(tetrahydro-2H-pyran-4-ylmethyl)amino]phenyl}sulfonyl)benzamide], the Ki under setting [1] came out at 5.34 nM.
